Assay results from US5753648A, “Tricyclic benzazepine vasopressin antagonists” (American Cyanamid Company, priority 1996, dated 1998).

What was measured:
[1] = molecular target: T1, Vasopressin V1 receptor subtype in Human Platelet Membranes (Homo sapiens, UniProt P37288); assay: Binding to Vasopressin V1 receptor subtype in Human Platelet Membranes; conditions: * V1 receptor subtype in human platelet
T1 construct: Frozen platelet rich plasma (PRP), received from the Hudson Valley Blood Services, are thawed to room temperature; tissue Hudson Valley Blood Services; host or cells: human platelets (platelet rich plasma)
T1 sequence (P37288 whole entry): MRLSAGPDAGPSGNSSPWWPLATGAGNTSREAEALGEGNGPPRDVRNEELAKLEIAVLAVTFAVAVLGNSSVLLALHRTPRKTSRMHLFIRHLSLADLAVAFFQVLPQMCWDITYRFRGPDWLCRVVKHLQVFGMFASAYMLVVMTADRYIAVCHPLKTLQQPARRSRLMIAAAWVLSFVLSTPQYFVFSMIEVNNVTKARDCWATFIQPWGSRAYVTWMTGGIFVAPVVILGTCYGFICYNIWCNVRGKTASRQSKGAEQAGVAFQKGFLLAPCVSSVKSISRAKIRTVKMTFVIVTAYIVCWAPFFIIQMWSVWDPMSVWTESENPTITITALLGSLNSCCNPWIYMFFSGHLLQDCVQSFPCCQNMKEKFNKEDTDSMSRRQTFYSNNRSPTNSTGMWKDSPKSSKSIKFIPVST
Method: Radioligand Binding Experiments with Human Platelet Membranes
Platelet Source: Hudson Valley Blood Services,
Westchester Medical Center, Valhalla, N.Y.
Platelet Membrane Preparation
Frozen platelet rich plasma (PRP), received from the Hudson Valley Blood Services, are thawed to room temperature. The tubes containing the PRP are centrifuged at 16,000×g for 10 min. at 4° C. and the supernatant fluid discarded. The platelets resuspended in an equal volume of 50.0 mM Tris.HCl, pH 7.5 containing 120 mM NaCl and 20.0 mM EDTA. The suspension is recentrifuged at 16,000×g for 10 min. This washing step is repeated one more time. The wash discarded and the lysed pellets homogenized in low ionic strength buffer of Tris.HCl, 5.0 mM, pH 7.5 containing 5.0 mM EDTA. The homogenate is centrifuged at 39,000×g for 10 min. The resulting pellet is resuspended in Tris.HCl buffer, 70.0 mM, pH 7.5 and recentrifuged at 39,000×g for 10 min. The final pellet is resuspended in 50.0 mM Tris.HCl buffer pH 7.4 containing 120 mM NaCl and 5.0 mM KCl to give 1.0-2.0 mg protein per ml of suspension.
Binding to Vasopressin V1 receptor subtype in Human Platelet Membranes
In wells of 96 well format microtiter plate, add 100 μl of 50.0 mM Tris.HCl buffer containing 0.2% BSA and a mixture of protease inhibitors (aprotinin, leupeptin etc.). Then add 20 μl of [^3 H]Ligand (Manning or Arg^8 Vasopressin), to give final concentrations ranging from 0.01 to 10.0 nM. Initiate the binding by adding 80.0 μl of platelet suspension (approx. 100 μg protein). Mix all reagents by pipetting the mixture up and down a few times. Non specific binding is measured in the presence of 1.0 μM of unlabeled ligand (Manning or Arg^8 Vasopressin). Let the mixture stand undisturbed at room temperature for ninety (90) min. Upon this time, rapidly filter off the incubate under vacuum suction over GF/B filters, using a Brandel® Harvester. Determine the radioactivity caught on the filter disks by the addition of liquid scintillant and counting in a liquid scintillator.

[2] = molecular target: T2, Rat Kidney Medullary V2 Receptors (Rattus norvegicus, UniProt Q00788); assay: biochemical; format: binding
T2 construct: Medullary tissues from rat kidneys are dissected out; from tissue; host or cells: rat kidney medulla membranes
T2 sequence (Q00788 whole entry): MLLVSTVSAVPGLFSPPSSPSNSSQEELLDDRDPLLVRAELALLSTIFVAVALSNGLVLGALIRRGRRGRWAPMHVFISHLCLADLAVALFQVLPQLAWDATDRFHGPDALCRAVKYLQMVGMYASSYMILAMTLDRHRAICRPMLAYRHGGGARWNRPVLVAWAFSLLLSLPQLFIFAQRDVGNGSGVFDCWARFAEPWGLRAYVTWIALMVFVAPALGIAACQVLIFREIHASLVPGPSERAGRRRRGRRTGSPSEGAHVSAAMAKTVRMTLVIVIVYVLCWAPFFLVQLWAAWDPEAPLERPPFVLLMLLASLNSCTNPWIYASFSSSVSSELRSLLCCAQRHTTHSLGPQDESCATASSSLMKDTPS

`Cc1ccc(F)cc1C(=O)Nc1ccc(C(=O)N2Cc3cccn3Cc3ccccc32)cn1` [Example 1, N-[5-(5H-Pyrrolo[2,1-c][1,4]benzodiazetin-10(11H)-ylcarbonyl)-2-pyridinyl]-5-fluoro-2-methylbenzamide] was tested, and the IC50 [1] was 20 nM and the IC50 [2] was 4 nM.
